Results from US9556135B2, “Amino-dihydrothiazine and amino-dioxido dihydrothiazine compounds as beta-secretase antagonists and methods of use” (Amgen Inc., priority 2012, dated 2017).
Like-named read-outs stand apart in the source and are kept apart here.

How the values were obtained:
[1] = molecular target: Beta Secretase enzyme (BACE1) (Homo sapiens (Human), UniProt P56817); assay: In vitro enzymatic BACE FRET assay; format: biochemical
Procedure: In Vitro Enzymatic BACE FRET (Fluorescence Resonance Energy Transfer) Assay (Enzyme Assay Data in the Example Tables I and II)
The assay buffer used in this screen is 0.05 M acetate, pH 4.2, 10% DMSO final, 100 uM genapol (which is a nonionic detergent, below its Critical Micelle Concentration). […] This assay is effectively started by the addition of FRET substrate (50 nM) and the combination is incubated for one hour. The FRET assay is terminated with by addition of Tris buffer, which raises the pH to neutrality, and the fluorescence is determined. The FRET substrate is a peptide with commercially available fluorophore and quencher, on opposite sides of the BACE cleavage site. Proteolytic cleavage of the FRET substrate releases quenching of fluorescence (excitation […] and […]).

[2] = tested on: Aβ40 in conditioned medium of cells stably expressing Amyloid Precursor Protein (APP); assay: In vitro BACE cell-based assay (HEK cell assay), Aβ40 sandwich ELISA
Procedure: In Vitro BACE Cell-Based Assay
The cell-based assay measures inhibition or reduction of Aβ40 in conditioned medium of test compound treated cells expressing amyloid precursor protein.
Cells stably expressing Amyloid Precursor Protein (APP) were plated at a density of 40K cells/well in 96 well plates (Costar). The cells were cultivated for 24 hours at 37° C. and 5% CO2 in DMEM supplemented with 10% FBS. The test compounds were then added to cells in 10-point dose response concentrations with the starting concentration being either 100 μM or 10 μM. The compounds were diluted from stock solutions in DMSO and the final DMSO concentration of the test compounds on cells was 0.1%. After 24 h of incubation with the test compounds the supernatant conditioned media was collected and the Aβ 40 levels were determined using a sandwich ELISA. The IC50 of the compound was calculated from the percent of control or percent inhibition of Aβ 40 as a function of the concentration of the test compound.
The sandwich ELISA to detect Aβ 40 was performed in 96 well microtiter plates, which were pre-treated with goat anti-rabbit IgG (Pierce). The capture and detecting antibody pair that were used to detect Aβ 40 from cell supernatants were affinity purified pAb40 (Biosource) and biotinylated 6E10 (Signet Labs Inc.), respectively. The optimal concentration for the pAb40 antibody was 3 μg/ml in Superblock/TBS (Pierce) that was supplemented with 0.05% Tween 20 (Sigma).
Cellular supernatants were incubated with the capture antibody for 3 h at 4° C., followed by 3 wash steps in TBS-tween (0.05%). The detecting antibody incubation was for 2 h at 4° C., again followed by the wash steps as described previously. The final readout of the ELISA is Time-Resolved Fluorescence (counts per minute) using Delfia reagents Streptavidin-Europium and Enhancement solutions (Perkin Elmer) and the Victor 2 multilabel counter (Perkin Elmer).

Cathepsin D (Cat D) = Cathepsin D (Cat D) (Homo sapiens (Human), UniProt P07339); assay: In vitro enzymatic Cathepsin D (Cat D) FRET assay; format: biochemical; settings: read-out: CatD IC50
Procedure: In Vitro Enzymatic Cathepsin D (Cat D) FRET (Fluorescence Resonance Energy Transfer) Assay Recombinant Cat D was expressed in CHO cells. […] The Cat D enzyme (9 nM) is pre-incubated for one hour with inhibitors, typically in about 1 uL of DMSO according to a serial dilution, is added thereto. […] The FRET assay is terminated with by addition of Tris buffer, which raises the pH to neutrality, and the fluorescence is determined. The FRET substrate is a peptide with commercially available fluorophore and quencher, on opposite sides of the BACE cleavage site. The Cat D substrate peptide sequence is based on sequence #1 of Table 1 from Gulnik et al. […] Where available, the in-vitro Cat D FRET assay data for each of the Examples, conducted by the first procedure, is provided.

Abeta 40 = assay: In vivo inhibition of beta-secretase: Abeta 40 reduction in CSF and brain of the rat; settings: 10 mpk (unless otherwise noted), after 4 hrs
[3] = average IC50, enzyme assay (Table II)
[4] = Homo sapiens, HEK293, average IC50, HEK cell assay

Sequence of Beta Secretase enzyme (BACE1) (P56817 46-501): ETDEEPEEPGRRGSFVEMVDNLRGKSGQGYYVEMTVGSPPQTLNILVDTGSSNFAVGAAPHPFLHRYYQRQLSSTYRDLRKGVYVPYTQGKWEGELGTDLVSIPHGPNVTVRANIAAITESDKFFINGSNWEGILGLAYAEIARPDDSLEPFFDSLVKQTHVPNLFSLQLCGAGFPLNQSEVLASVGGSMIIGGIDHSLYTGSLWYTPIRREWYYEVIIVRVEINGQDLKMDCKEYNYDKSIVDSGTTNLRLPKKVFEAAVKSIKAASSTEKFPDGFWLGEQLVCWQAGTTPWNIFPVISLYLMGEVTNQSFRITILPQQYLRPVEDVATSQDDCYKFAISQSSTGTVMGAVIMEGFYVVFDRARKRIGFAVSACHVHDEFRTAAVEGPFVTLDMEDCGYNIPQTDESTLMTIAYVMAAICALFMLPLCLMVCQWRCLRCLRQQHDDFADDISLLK
Sequence of Cathepsin D (Cat D) (P07339 65-412, species assumed): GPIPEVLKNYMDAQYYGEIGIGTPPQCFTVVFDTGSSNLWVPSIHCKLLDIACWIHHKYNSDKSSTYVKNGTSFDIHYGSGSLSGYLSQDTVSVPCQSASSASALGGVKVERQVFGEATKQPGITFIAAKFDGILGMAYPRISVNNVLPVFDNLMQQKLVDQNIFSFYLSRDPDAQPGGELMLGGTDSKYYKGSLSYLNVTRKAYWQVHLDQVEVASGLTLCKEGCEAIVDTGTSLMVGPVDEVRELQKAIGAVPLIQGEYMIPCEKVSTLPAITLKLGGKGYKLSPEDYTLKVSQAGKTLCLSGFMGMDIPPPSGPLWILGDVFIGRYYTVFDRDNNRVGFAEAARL

Row | Molecule | IC50 (Cathepsin D (Cat D)) | IC50 ([1]; average IC50, enzyme assay) | IC50 ([2]; average IC50, cell assay) | IC50 [2, 4] | IC50 (Cathepsin D (Cat D); Cathepsin D FRET assay) | also measured
1 | COc1cnc(C(=O)Nc2ccc(F)c([C@@]3(C(F)(F)F)CS(=O)(=O)C(C)(C)C(N)=N3)c2)cn1 [Example 34, N-(3-((3R)-5-amino-6,6-dimethyl-1,1-dioxido-3-(trifluoromethyl)-3,6-dihydro-2H-1,4-thiazin-3-yl)-4-fluorophenyl)-5-methoxy-2-pyrazinecarboxamide] | > 400000 nM | – | – | – | – | IC50 [1]: 883 nM; IC50 ([2]; Homo sapiens, HEK293, Aβ40 in conditioned medium after 24 h incubation): > 10000 nM
2 | COc1cnc(C(=O)Nc2cc([C@@]3(C)CS(=O)(=O)C(C)(C)C(N)=N3)c(F)cn2)cn1 [Example 142, (S)—N-(4-(5-amino-3,6,6-trimethyl-1,1-dioxido-3,6-dihydro-2H-1,4-thiazin-3-yl)-5-fluoropyridin-2-yl)-5-methoxypyrazine-2-carboxamide] | > 400000 nM | – | – | – | – | IC50 ([1]; average IC50): 10000 nM; IC50 ([2]; Homo sapiens, HEK293, average IC50): 4360 nM
3 | COc1cnc(C(=O)Nc2cc([C@]3(C)CS(=O)(=O)C(C)(C)C(N)=N3)c(F)cn2)cn1 [Example 143, (R)—N-(4-(5-amino-3,6,6-trimethyl-1,1-dioxido-3,6-dihydro-2H-1,4-thiazin-3-yl)-5-fluoropyridin-2-yl)-5-methoxypyrazine-2-carboxamide] | – | – | – | – | – | IC50 [1, 3]: 115 nM; IC50 ([2]; Homo sapiens, HEK293, average IC50, cell assay (Table II)): 462 nM; IC50 (Cathepsin D (Cat D); Table II): 221000 nM
4 | Cc1cc(C(F)F)cnc1C(=O)Nc1ccc(F)c([C@]2(C)CS(=O)(=O)[C@]3(C[C@@H](F)C3)C(N)=N2)c1 [Example 338, N-(3-((2S,4s,7R)-9-amino-2-fluoro-7-methyl-5,5-dioxido-5-thia-8-azaspiro[3.5]non-8-en-7-yl)-4-fluorophenyl)-5-(diffuoromethyl)-3-methyl-2-pyridinecarboxamide] | – | – | – | – | – | IC50 [1, 3]: 2.94 nM; IC50 ([2]; average IC50, cell assay (Table II)): 10.8 nM; IC50 (Cathepsin D (Cat D); Table II): 59000 nM
5 | COc1cnc(C(=O)Nc2ccc(F)c([C@]34COC[C@H]3S(=O)(=O)C(C)(C)C(N)=N4)c2)c(C)c1 [Example 430, N-(3-((4aS,7aS)-3-amino-2,2-dimethyl-1,1-dioxido-7,7a-dihydro-2H-furo[3,4-13][1,4]thiazin-4a(5H)-yl)-4-fluorophenyl)-5-methoxy-3-methyl-2-pyridinecarboxamide] | – | 4.1 nM | 11.7 nM | – | – | % reduction of rat CSF levels at 10 pmk (Abeta 40; rat CSF): 31%; % reduction of rat brain levels at 10 mpk (Abeta 40; rat brain): 1%
6 | CC1(C)C(N)=N[C@](CF)(c2cc(Nc3nccc4cc(Cl)cnc34)ccc2F)CS1(=O)=O [Example 448, N-(3-((3S)-5-amino-3-(fluoromethyl)-6,6-dimethyl-1,1-dioxido-3,6-dihydro-2H-1,4-thiazn-3-yl)-4-fluorophenyl)-3-chloro-1,7-naphthyridin-8-amine] | – | – | 28.5 nM | – | – | –
7 | CO[C@H]1C[C@]2(C1)C(N)=N[C@](C)(c1cc(NC(=O)c3ncc(Cl)cc3C)ccc1F)CS2(=O)=O [Example 460, N-(3-((2R,4r,7R)-9-amino-2-methoxy-7-methyl-5,5-dioxido-5-thia-8-azaspiro[3.5]non-8-en-7-yl)-4-fluorophenyl)-5-chloro-3-methylpicolinamide] | – | 4 nM | – | 34.9 nM | 466000 nM | –
8 | COc1cnc(C(=O)Nc2ccc(F)c([C@]3(C)CS(=O)(=O)[C@]4(C[C@H](OC)C4)C(N)=N3)c2)c(C)c1 [Example 461, N-(3-((2R,4r,7R)-9-amino-2-methoxy-7-methyl-5,5-dioxido-5-thia-8-azaspiro[3.5]non-8-en-7-yl)-4-fluorophenyl)-5-methoxy-3-methylpicolinamide] | – | 15.7 nM | – | 28 nM | 399000 nM | –
9 | Cc1c(C(=O)Nc2ccc(F)c([C@@]3(C)N=C(N)C4(CC4)S(=O)(=O)[C@H]3F)c2)nc2ccc(Cl)cn12 [Example 462, N-(3-((5R,6R)-8-amino-5-fluoro-6-methyl-4,4-dioxido-4-thia-7-azaspiro[2.5]oct-7-en-6-yl)-4-fluorophenyl)-6-chloro-3-methylimidazo[1,2-a]pyridine-2-carboxamide] | – | 3.2 nM | – | 10.4 nM | 60100 nM | –
10 | COc1cnc(C(=O)Nc2ccc(F)c([C@]3(C)CS(=O)(=O)[C@]4(C[C@@H](F)C4)C(N)=N3)c2)c(C)c1 [Example 463, N-(3-((2S,4s,7R)-9-amino-2-fluoro-7-methyl-5,5-dioxido-5-thia-8-azaspiro[3.5]non-8-en-7-yl)-4-fluorophenyl)-5-methoxy-3-methylpicolinamide] | – | 4.6 nM | – | 13.2 nM | 76500 nM | –
11 | Cc1c(C(=O)Nc2ccc(F)c([C@]3(C)CS(=O)(=O)[C@]4(C[C@@H](F)C4)C(N)=N3)c2)nc2ccc(Cl)cn12 [Example 464, N-(3-((2 S,4s,7R)-9-amino-2-fluoro-7-methyl-5,5-dioxido-5-thia-8-azaspiro[3.5]non-8-en-7-yl)-4-fluorophenyl)-6-chloro-3-methylimidazo[1,2-a]pyridine-2-carboxamide] | – | 4 nM | – | 6 nM | 67400 nM | –
12 | N-(3-((4aR,7aR)-3-amino-2,2-dimethyl-1,1-dioxido-7,7a-dihydro-2H-furo[3,4-b][1,4]thiazin-4a(5H)-yl)-4-fluorophenyl)-5-(difluoromethoxy)-3-methyl-2-pyridinecarboxamide,N-(3-((4aS,7aS)-3-amino-2,2-dimethyl-1,1-dioxido-7,7a-dihydro-2H-furo[3,4-b][1,4]thiazin-4a(5H)-yl)-4-fluorophenyl)-5-(difluoromethoxy)-3-methyl-2-pyridinecarboxamide [Example 413] | 111000 nM | – | – | – | – | IC50 ([1]; average IC50): 2.65 nM; IC50 ([2]; average IC50): 10.3 nM
13 | N-(3-((4aR,7aS)-3-amino-2,2-dimethyl-1,1-dioxido-7,7a-dihydro-2H-furo[3,4-b][1,4]thiazin-4a(5H)-yl)-4-fluorophenyl)-3-chloro-1,7-naphthyridin-8-amine,N-(3-((4aS,7aR)-3-amino-2,2-dimethyl-1,1-dioxido-7,7a-dihydro-2H-furo[3,4-b][1,4]thiazin-4a(5H)-yl)-4-fluorophenyl)-3-chloro-1,7-naphthyridin-8-amine [Example 429] | 131000 nM | 4.6 nM | 157 nM | – | – | –
14 | N-(3-((4aR,7aS)-3-amino-2,2-dimethyl-1,1-dioxido-7,7a-dihydro-2H-furo[3,4-b][1,4]thiazin-4a(5H)-yl)-4-fluorophenyl)-5-chloro-2-pyridinecarboxamide,N-(3-((4aS,7aR)-3-amino-2,2-dimethyl-1,1-dioxido-7,7a-dihydro-2H-furo[3,4-b][1,4]thiazin-4a(5H)-yl)-4-fluorophenyl)-5-chloro-2-pyridinecarboxamide [Example 426] | 170000 nM | 1.5 nM | 13.6 nM | – | – | –
15 | N-(3-((4aR,7aS)-3-amino-2,2-dimethyl-1,1-dioxido-7,7a-dihydro-2H-furo[3,4-b][1,4]thiazin-4a(5H)-yl)-4-fluorophenyl)-5-chloro-3-methyl-2-pyridinecarboxamide,N-(3-((4aS,7aR)-3-amino-2,2-dimethyl-1,1-dioxido-7,7a-dihydro-2H-furo[3,4-13][1,4]thiazin-4a(5H)-yl)-4-fluorophenyl)-5-chloro-3-methyl-2-pyridinecarboxamide [Example 427] | 220000 nM | 1 nM | 33 nM | – | – | –
